Reference: article PMC5074515 (PLoS ONE, 2016)
Converted amounts (≈) assume the structure as drawn. Like-named read-outs stand apart in the source and are kept apart here.

Key:
[1] = tested on: Mtb H37Rv; assay: In vitro qHTS assay against Mtb H37Rv (IC90); format: cell-based, M. tuberculosis; details: for IC90 / Mtb H37Rv IC90: concentration that inhibits bacterial growth by 90%; for IC90: read-out: Mtb H37Rv IC90; for fold more active against Mtb H37Rv than corresponding analog: 48 vs 23, 57 vs 56, 60 vs 24
[2] = tested on: Mtb H37Ra (ATCC 25177); assay: In vitro screen versus Mtb H37Ra (Alamar blue microdilution broth assay, MIC99); format: cell-based, M. tuberculosis; details: Mycobacterium tuberculosis; lowest drug concentration that completely inhibited growth; read-out: Mtb H37Ra MIC99
Description: The initial screening set and selected other compounds were tested for their inhibitory activity against Mtb H37Ra (ATCC 25177) and MAC NJ211 strains. Screening was performed at 1.28 and 12.8 μg/mL in Middlebrook 7H9 broth supplemented with 0.2% glycerol and ADC enrichment using a colorimetric (Alamar blue) microdilution broth assay by reported methods.[15]

[3] = Mycobacterium tuberculosis, H37RV

| Molecule | IC90 [1, 3] | melting point | further results |
| --- | --- | --- | --- |
| CSc1ccc(/C=C2/C(C)=C(C(C)C(=O)N3CCC[C@H]3CN3CCCC3)c3cc(F)ccc32)cc1 (stereo partly drawn) [Compound 52, 2-((Z)-5-Fluoro-2-methyl-1-(4-(methylthio)benzylidene)-1H-inden-3-yl)-1-((S)-2-(pyrrolidin-1-ylmethyl)pyrrolidin-1-yl)propan-1-one] | 2.55 ± 0.03 µM | 80 to 82 °C | – |
| CSc1ccc(/C=C2/C(C)=C(CC(=O)NCCCn3ccnc3)c3cc(F)ccc32)cc1 [Compound 33, (Z)-N-(3-(1H-Imidazol-1-yl)propyl)-2-(5-fluoro-2-methyl-1-(4-(methylthio)benzylidene)-1H-inden-3-yl)acetamide] | 1.18 ± 0.01 µM | 103 to 105 °C | – |
| CSc1ccc(/C=C2/C(C)=C(C(C)C(=O)NCCN(C)C)c3cc(F)ccc32)cc1 (stereo not drawn) [Compound 44, (Z)-N-(2-(Dimethylamino)ethyl)-2-(5-fluoro-2-methyl-1-(4-(methylthio)benzylidene)-1H-inden-3-yl)propanamide] | 13.6 ± 0.89 µM | – | fold less active against Mtb H37Rv than desmethyl analog ([1]; 44 vs 18): 2 fold |
| CSc1ccc(/C=C2/C(C)=C(CC(=O)NCc3ccccc3)c3cc(F)ccc32)cc1 [Compound 34, (Z)-N-Benzyl-2-(5-fluoro-2-methyl-1-(4-(methylthio)benzylidene)-1H-inden-3-yl)acetamide] | > 100 µM | 171 to 174 °C | Mtb H37Rv IC90 [1]: inactive |
| CC1=C(CC(=O)NCCN2CCCC2)c2cc(F)ccc2/C1=C\c1nc2ccccc2s1 [Compound 41, (Z)-2-(1-(Benzo[d]thiazol-2-ylmethylene)-5-fluoro-2-methyl-1H-inden-3-yl)-N-(2-(pyrrolidin-1-yl)ethyl)acetamide] | 6.7 ± 0.04 µM | – | – |
| CC1=C(CC(=O)NCCN(C)C)c2cc(F)ccc2/C1=C\c1nc2ccccc2s1 [Compound 38, (Z)-2-(1-(Benzo[d]thiazol-2-ylmethylene)-5-fluoro-2-methyl-1H-inden-3-yl)-N-(2-(dimethylamino)ethyl)acetamide] | 4.75 ± 0.05 µM | 132 to 135 °C | – |
| CSc1ccc(/C=C2/C(C)=C(CC(=O)NCCC3CCCN3C)c3cc(F)ccc32)cc1 (stereo not drawn) [Compound 27, (Z)-2-(5-Fluoro-2-methyl-1-(4-(methylthio)benzylidene)-1H-inden-3-yl)-N-(2-(1-methylpyrrolidin-2-yl)ethyl)acetamide] | 4.34 ± 0.16 µM | – | – |
| (Z)-N-(3-(Dibutylamino)propyl)-2-(5-fluoro-2-methyl-1-(4-(methylthio)benzylidene)-1H-inden-3-yl)acetamide [Compound 22] | – | – | IC90 [1]: 0.85 µM |
| COC(=O)[C@H](C)NC(=O)CC1=C(C)/C(=C/c2ccc(SC)cc2)c2ccc(F)cc21 [Compound 37, (S,Z)-Methyl 2-(2-(5-fluoro-2-methyl-1-(4-(methylthio)benzylidene)-1H-inden-3-yl)acetamido)propanoate] | 3.04 ± 0.1 µM | 151 to 154 °C | – |
| CCN1CCC[C@H]1CNC(=O)CC1=C(C)/C(=C/c2ccc(SC)cc2)c2ccc(F)cc21 [Compound 28, (S,Z)-N-((1-Ethylpyrrolidin-2-yl)methyl)-2-(5-fluoro-2-methyl-1-(4-(methylthio)benzylidene)-1H-inden-3-yl)acetamide] | 3.98 ± 0.03 µM | 74 to 76 °C | – |
| CCN(CC)CCNC(=O)C(C)C1=C(C)/C(=C/c2ccc(SC)cc2)c2ccc(F)cc21 (stereo not drawn) [Compound 46, (Z)-N-(2-(Diethylamino)ethyl)-2-(5-fluoro-2-methyl-1-(4-(methylthio)benzylidene)-1H-inden-3-yl)propanamide] | 4.19 ± 0.2 µM | 75 to 77 °C | – |
| CCN(CC)CCNC(=O)CC1=C(C)/C(=C/c2nc3ccccc3s2)c2ccc(F)cc21 [Compound 40, (Z)-2-(1-(Benzo[d]thiazol-2-ylmethylene)-5-fluoro-2-methyl-1H-inden-3-yl)-N-(2-(diethylamino)ethyl)acetamide] | 3.47 ± 0.04 µM | 127 to 130 °C | – |
| CCN(CC)CCCNC(=O)CC1=C(C)/C(=C/c2ccc(SC)cc2)c2ccc(F)cc21 [Compound 21, (Z)-N-(3-(Diethylamino)propyl)-2-(5-fluoro-2-methyl-1-(4-(methylthio)benzylidene)-1H-inden-3-yl)acetamide] | 4.36 ± 0.07 µM | 78 to 81 °C | – |
| CSc1ccc(/C=C2/C(C)=C(C(C)C(=O)N3CCC(N4CCCCC4)CC3)c3cc(F)ccc32)cc1 (stereo not drawn) [Compound 53, (Z)-1-([1,4'-Bipiperidin]-1'-yl)-2-(5-fluoro-2-methyl-1-(4-(methylthio)benzylidene)-1H-inden-3-yl)propan-1-one] | 2.84 ± 0.06 µM | 80 to 82 °C | – |
| CSc1ccc(/C=C2/C(C)=C(CC(=O)N3CCC(N4CCCCC4)CC3)c3cc(F)ccc32)cc1 [Compound 30, (Z)-1-([1,4'-Bipiperidin]-1'-yl)-2-(5-fluoro-2-methyl-1-(4-(methylthio)benzylidene)-1H-inden-3-yl)ethanone] | 2.75 ± 0.02 µM | 145 to 148 °C | – |
| CCN(CC)CCNC(=O)CC1=C(C)/C(=C/c2ccc(SC)cc2)c2ccc(F)cc21 [Compound 20, (Z)-N-(2-(Diethylamino)ethyl)-2-(5-fluoro-2-methyl-1-(4-(methylthio)benzylidene)-1H-inden-3-yl)acetamide] | 3.59 ± 0.06 µM | 98 to 100 °C | – |
| CSc1ccc(/C=C2/C(C)=C(CC(=O)N3CCN(CCCN(C)C)CC3)c3cc(F)ccc32)cc1 [Compound 31, (Z)-1-(4-(3-(Dimethylamino)propyl)piperazin-1-yl)-2-(5-fluoro-2-methyl-1-(4-(methylthio)benzylidene)-1H-inden-3-yl)ethanone] | 9.55 ± 0.31 µM | 131 to 134 °C | – |
| CSc1ccc(/C=C2/C(C)=C(CC(=O)NCc3ccco3)c3cc(F)ccc32)cc1 [Compound 36, (Z)-2-(5-Fluoro-2-methyl-1-(4-(methylthio)benzylidene)-1H-inden-3-yl)-N-(furan-2-ylmethyl)acetamide] | > 100 µM | 166 to 168 °C | Mtb H37Rv IC90 [1]: inactive |
| CCN1CCC[C@H]1CNC(=O)CC1=C(C)/C(=C/c2nc3ccccc3s2)c2ccc(F)cc21 [Compound 42, (S,Z)-2-(1-(Benzo[d]thiazol-2-ylmethylene)-5-fluoro-2-methyl-1H-inden-3-yl)-N-((1-ethylpyrrolidin-2-yl)methyl)acetamide] | 5.46 ± 0.12 µM | 168 to 171 °C | – |
| CSc1ccc(/C=C2/C(C)=C(CC(=O)N3CCC[C@H]3CN3CCCC3)c3cc(F)ccc32)cc1 [Compound 29, (S,Z)-2-(5-Fluoro-2-methyl-1-(4-(methylthio)benzylidene)-1H-inden-3-yl)-1-(2-(pyrrolidin-1-ylmethyl)pyrrolidin-1-yl)ethanone] | 4.06 ± 0.03 µM | 101 to 104 °C | – |
| CC1=C(CC(=O)N2CCC[C@H]2CN2CCCC2)c2cc(F)ccc2/C1=C\c1nc2ccccc2s1 [Compound 43, (S,Z)-2-(1-(Benzo[d]thiazol-2-ylmethylene)-5-fluoro-2-methyl-1H-inden-3-yl)-1-(2-(pyrrolidin-1-ylmethyl)pyrrolidin-1-yl)ethanone] | 3.68 ± 0.11 µM | 79 to 81 °C | – |
| CSc1ccc(/C=C2/C(C)=C(C(C)C(=O)N(C)CCN(C)C)c3cc(F)ccc32)cc1 (stereo not drawn) [Compound 45, (Z)-N-(2-(Dimethylamino)ethyl)-2-(5-fluoro-2-methyl-1-(4-(methylthio)benzylidene)-1H-inden-3-yl)-N-methylpropanamide] | 5.95 ± 0.06 µM | – | – |
| CSc1ccc(/C=C2/C(C)=C(C(C)C(=O)NCCN3CCCCC3)c3cc(F)ccc32)cc1 (stereo not drawn) [Compound 49, (Z)-2-(5-Fluoro-2-methyl-1-(4-(methylthio)benzylidene)-1H-inden-3-yl)-N-(2-(piperidin-1-yl)ethyl)propanamide] | 1.99 ± 0.06 µM | – | – |
| CCN1CCC[C@H]1CNC(=O)C(C)C1=C(C)/C(=C/c2ccc(SC)cc2)c2ccc(F)cc21 (stereo partly drawn) [Compound 51, N-(((S)-1-Ethylpyrrolidin-2-yl)methyl)-2-((Z)-5-fluoro-2-methyl-1-(4-(methylthio)benzylidene)-1H-inden-3-yl)propanamide] | 2.41 ± 0.04 µM | – | – |
| CSc1ccc(/C=C2/C(C)=C(C(C)C(=O)N(C)CCN(C)C(=O)[C@@H](N)C(C)C)c3cc(F)ccc32)cc1 (stereo partly drawn) [Compound 57, (2S)-2-Amino-N-(2-(2-((Z)-5-fluoro-2-methyl-1-(4-(methylthio)benzylidene)-1H-inden-3-yl)-N-methylpropanamido)ethyl)-N,3-dimethylbutanamide] | 0.74 µM | 60 to 62 °C | fold more active against Mtb H37Rv than corresponding analog [1]: 6 fold |
| CSc1ccc(/C=C2/C(C)=C(C(C)C(=O)N3CCN(c4ccncc4)CC3)c3cc(F)ccc32)cc1 (stereo not drawn) [Compound 55, (Z)-2-(5-Fluoro-2-methyl-1-(4-(methylthio)benzylidene)-1H-inden-3-yl)-1-(4-(pyridin-4-yl)piperazin-1-yl)propan-1-one] | 2.89 ± 0.09 µM | – | – |
| CC(=O)O[C@H]1C(=O)[C@@]2(C)[C@H]([C@H](OC(=O)c3ccccc3)[C@]3(O)C[C@H](OC(=O)[C@H](O)[C@@H](NC(=O)c4ccccc4)c4ccccc4)C(C)=C1C3(C)C)[C@]1(OC(C)=O)CO[C@@H]1C[C@@H]2O [Compound 14, Taxol] | – | – | MIC99 [2]: 16 mg/L (≈ 18.7 µM) |
| CNCCN(C)C(=O)C(C)C1=C(C)/C(=C/c2ccc(SC)cc2)c2ccc(F)cc21 (stereo not drawn) [Compound 48, (Z)-2-(5-Fluoro-2-methyl-1-(4-(methylthio)benzylidene)-1H-inden-3-yl)-N-methyl-N-(2-(methylamino)ethyl)propanamide] | 2.11 ± 0.08 µM | – | fold more active against Mtb H37Rv than corresponding analog [1]: 4 fold |
